From US10604487B2, “Pyridinol derivative or pharmaceutically acceptable salt thereof, and pharmaceutical composition containing same as active ingredient” (Research Cooperation Foundation of Yeungnam University, priority 2016, dated 2020) come the findings set out here.

Where two headings read alike, the source gives them in different places.

The nature of series [1]: Cytotoxicity test (MTT), HT-29. It is filed as cell-based. The settings on record: human, HT-29, 48 h; for viability at 48 h, 0.01 µM / viability at 48 h, 0.1 µM / viability at 48 h, 1 µM / viability at 48 h, 10 µM / viability at 48 h, 100 µM: HT-29 cells (colorectal cancer cell line), read-out: Cell viability (% of control); for IC50 at 48 h: HT-29 cells, read-out: IC50 (μM), cytotoxicity. The method, boiled down: (§1)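 Cells seeded at 1×10⁵ cells/cm² and exposed to graded compound concentrations for 48 h at 37 °C in RPMI 1640 with 1% FBS. MTT (5 mg/mL) added for 4 h; formazan dissolved in DMSO and absorbance read at 540 nm.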

The next series relates to TNBS-induced colitis. Nature of the series: In vivo efficacy of oral administration in TNBS-induced inflammatory bowel disease model. Set-up: species or system Sprague Dawley rats. The settings on record: rat; for Body weight recovery rate (%) / Bowel weight recovery rate (%): oral, 5 days. How it is done:
7 to 8-week-old Sprague Dawley rats were purchased from Orient Bio Korea, and after stabilization with typical solid feed for 3 days, were used as animals for the experiment. The animals were freely supplied with feed and water during the experiment, and a cage was maintained at a temperature of 25±1° C. and a relative humidity of 50±10%. Lighting was adjusted to a 12-hour light-dark cycle using an automatic lightening system. In regard to experimental groups, there were 5 groups each consisting of 6 rats having an average weight of 180±10 g (a control group, a group administered TNBS only, a group administered TNBS+300 mg/kg of sulfasalazine, a group administered TNBS+10 mg/kg of GLPG, and a group administered TNBS+1 mg/kg of test drug), which were divided according to a randomized block design.
After rats that had been fasting for 24 hours were anesthetized with diethyl ether, a 1 mL syringe connected with a polyethylene catheter was used to slowly inject 0.8 mL of 5% TNBS diluted with 50v/v % ethanol into the lumen of a colon, and then the rats turned upside down and kept upright for 60 seconds to prevent the leakage of 5% TNBS from the anus. In the control group, only a vehicle [50 v/v % ethanol] was injected in the same manner as in the other groups (Thapa et al., 2008).
To examine a drug effect, for 5 days from the day following the TNBS treatment, a drug was administered at a predetermined time every day.
A change in the body weights of the rats was observed using a digital mass meter from the fasting stage to the end of the TNBS administration and drug administration processes.
The colon of each rat was extracted and tissue 5 to 6 cm from the anus was cut into 1-cm pieces, and then the weight of the tissue was measured.

A short description of series [2]: Cytotoxicity test (MTT), U937. It is filed as cell-based. As to conditions: human, U937, 48 h; for viability at 48 h, 0.01 µM / viability at 48 h, 0.1 µM / viability at 48 h, 1 µM / viability at 48 h, 10 µM / viability at 48 h, 100 µM: U937 cells (monocytic blood cancer-derived cell line), read-out: Cell viability (% of control); for IC50 at 48 h: U937 cells. The method, boiled down: as §1

Series [3] has as its system TNF-α-induced adhesion of monocytes to intestinal epithelial cells. Nature of the series: Inhibitory activity against TNF-α-induced adhesion of monocytes (U937) to intestinal epithelial cells (HT-29). Format: cell-based, human. The settings on record: for inhibition at 1 µM / IC50: Homo sapiens; for IC50: TNF-α-induced, read-out: IC50 (adhesion inhibition). The method, boiled down:
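HT-29 monolayers pretreated 1 h with compound in 1% FBS medium, then exposed 3 h at 37 °C to BCECF-loaded U937 cells plus 10 ng/mL TNF-α. Non-adherent cells washed off; bound cells quantified by fluorescence after Triton X-100 lysis.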

Where [4] appears, read: 1 μM, Table 8, read-out: 1 μM concentration inhibitory activity.
Where [5] appears, read: 1 μM test drug, HT-29/U937 adhesion, 10 ng/mL TNF-α, read-out: Inhibitory activity (%).
The mark [6] stands for this setting: 1 μM test drug, HT-29/U937 adhesion, 10 ng/mL TNF-α.

A word on the viability: it is a read-out of living cells in per cent, often relative to untreated cells. As a reminder, the IC50 is the concentration at which inhibition is half-maximal. Regarding `Cc1nc(NC(=O)Nc2ccccc2)c(C)c(C)c1O` [Compound 16-2, 1-(5-hydroxy-3,4,6-trimethylpyridin-2-yl)-3-phenylurea], in series [1], the viability at 48 h, 0.01 µM turned out to be 103 ± 1.9%; the viability at 48 h, 0.1 µM was 103 ± 1.6%; the viability at 48 h, 1 µM was 103 ± 3.5%; the viability at 48 h, 10 µM was determined as 93.4 ± 7.2%. In addition, in series [1], the viability at 48 h, 100 µM was determined as 65.2 ± 6.6% and the half-maximal inhibitory concentration (IC50) at 48 h is over 100 µM. For the same molecule, in the series with TNBS-induced colitis (1 mg/kg), the “Body weight recovery rate (%)” value was 69.0% and the “Bowel weight recovery rate (%)” value worked out at 81.6%. Further, in series [2], the viability at 48 h, 0.01 µM was determined as 89.9 ± 2.6%; the viability at 48 h, 0.1 µM came to 88.9 ± 1.9%; the viability at 48 h, 1 µM came to 87.1 ± 2%; the viability at 48 h, 10 µM is 81.7 ± 2%. Also, in series [2], the viability at 48 h, 100 µM is 78 ± 0.6% and the concentration for half-maximal inhibition (IC50) at 48 h was over 100 µM. In addition, the inhibition at 1 µM in series [3] (setting [4]) was determined as 76.3%. The 50% inhibitory concentration (IC50) in series [3] (HT-29/U937 adhesion) stood at 0.41 µM.
With `Cc1nc(NC(=S)NC(C)C)c(C)c(C)c1O` [Compound 18-2, 1-(5-hydroxy-3,4,6-trimethylpyridin-2-yl)-3-isopropylthiourea], in series [1], the viability at 48 h, 0.01 µM was determined as 87.6 ± 4.8%; the viability at 48 h, 0.1 µM was 87.3 ± 2.1%; the viability at 48 h, 1 µM was 88.4 ± 4.2%; the viability at 48 h, 10 µM came out at 87.6 ± 5.3%. In series [1], the viability at 48 h, 100 µM came to 88.6 ± 1.3% and the 50% inhibitory concentration (IC50) at 48 h is over 100 µM. Moreover, in the series on TNBS-induced colitis (1 mg/kg), the “Body weight recovery rate (%)” value worked out at 72.0% and the “Bowel weight recovery rate (%)” value is listed as 81.6%. In series [2], the viability at 48 h, 0.01 µM worked out at 97 ± 3.5%; the viability at 48 h, 0.1 µM came out at 99.4 ± 3.9%; the viability at 48 h, 1 µM worked out at 99.1 ± 1.4%; the viability at 48 h, 10 µM turned out to be 90.8 ± 2.2%. Further, in series [2], the viability at 48 h, 100 µM worked out at 63.6 ± 0.8% and the IC50 at 48 h is over 100 µM. In addition, the inhibition at 1 µM in series [3] (setting [5]) was at least 50%.
As to `Cc1nc(NC(=S)Nc2ccc(Cl)c(Cl)c2)c(C)c(C)c1O` [Compound 18-8, 1-(3,4-dichlorophenyl)-3-(5-hydroxy-3,4,6-trimethylpyridin-2-yl)thiourea], in the series on TNBS-induced colitis (1 mg/kg), the “Body weight recovery rate (%)” value is on record as 72.4% and the “Bowel weight recovery rate (%)” value amounted to 84.6%. The “Inhibitory activity (%)” value in series [3] (setting [6]) is 87.2%.
The matching figures for `Cc1nc(NC(=S)Nc2cccc(C(F)(F)F)c2)c(C)c(C)c1O` [Compound 18-9, 1-(5-Hydroxy-3,4,6-trimethylpyridin-2-yl)-3-(3-(trifluoromethyl)phenyl)thiourea]: 74.9%, 87.2% and 93.0%.
Turning to `Cc1nc(NC(=S)NC(=O)c2ccccc2)c(C)c(C)c1O` [Compound 18-13, N-((5-Hydroxy-3,4,6-trimethylpyridin-2-yl)carbamothioyl)benzamide], in series [1], the viability at 48 h, 0.01 µM came out at 78.8 ± 3.3%; the viability at 48 h, 0.1 µM came to 75.4 ± 1.3%; the viability at 48 h, 1 µM is 75.4 ± 4.1%; the viability at 48 h, 10 µM is 57.9 ± 5.8%. Moreover, in series [1], the viability at 48 h, 100 µM is 36.4 ± 6.1% and the IC50 at 48 h turned out to be 19.1 µM. In the series on TNBS-induced colitis (1 mg/kg), the “Body weight recovery rate (%)” value amounted to 93.8% and the “Bowel weight recovery rate (%)” value is reported as 94.9%. For the same molecule, in series [2], the viability at 48 h, 0.01 µM was 99.9 ± 1.3%; the viability at 48 h, 0.1 µM came to 96.8 ± 1.8%; the viability at 48 h, 1 µM was found to be 91.7 ± 3.6%; the viability at 48 h, 10 µM was determined as 79 ± 0.8%. Further, in series [2], the viability at 48 h, 100 µM came to 60.6 ± 0.5% and the IC50 at 48 h is over 100 µM. The inhibition at 1 µM in series [3] (setting [5]) was at least 50%.
In the case of `Cc1nc(NS(=O)(=O)c2ccc(C(F)(F)F)cc2)c(C)c(C)c1O` [Compound 22-3, N-(5-hydroxy-3,4,6-trimethylpyridin-2-yl)-4-(trifluoromethyl)benzenesulfonamide], in series [1], the viability at 48 h, 0.01 µM worked out at 92.5 ± 1.5%; the viability at 48 h, 0.1 µM came to 95 ± 0.9%; the viability at 48 h, 1 µM amounted to 89.3 ± 4.7%; the viability at 48 h, 10 µM came out at 91.8 ± 1.8%. Also, in series [1], the viability at 48 h, 100 µM was determined as 72.6 ± 3.2% and the IC50 at 48 h was over 100 µM. In the series with TNBS-induced colitis (1 mg/kg), the “Body weight recovery rate (%)” value came out at 25.0% and the “Bowel weight recovery rate (%)” value is recorded as 50.3%. Besides, in series [2], the viability at 48 h, 0.01 µM came to 96.9 ± 1.5%; the viability at 48 h, 0.1 µM amounted to 93 ± 1.5%; the viability at 48 h, 1 µM was determined as 87.5 ± 2.2%; the viability at 48 h, 10 µM amounted to 75.5 ± 1.9%. In addition, in series [2], the viability at 48 h, 100 µM was found to be 53.3 ± 1.5% and the IC50 at 48 h was over 100 µM. In addition, the inhibition at 1 µM in series [3] (setting [4]) is 87.3%. Also, in series [3] (HT-29/U937 adhesion), the IC50 came to 0.32 µM.
As to `O=C(O)c1cc(/N=N/c2ccc(S(=O)(=O)Nc3ccccn3)cc2)ccc1O` [Sulfasalazine, reference compound], the “Morphology observation of colon (visual symptoms, adhesion between organs, intestinal hyperemia)” value with TNBS-induced colitis (300 mg/kg, after 5-day administration) was “considerably inhibited”. In the series with TNBS-induced colitis (300 mg/kg), the “Body weight recovery rate (%)” value amounted to 50.5% and the “Bowel weight recovery rate (%)” value was determined as 69.6%.
